From the NIST ThermoML archive (doi:10.1021/je900311v)

What was measured:
[1] = excess molar enthalpy (molar enthalpy of mixing); xn = mol fraction of the nth substance listed; details: 298.15 K, 101 kPa, Liquid, Calvet calorimetry
[2] = 298.15 K; 101.33 kPa; Liquid

CCCCCCC(C)=O [2-octanone] + CCCCCCCCCCCCCC
[1]
Details	excess molar enthalpy [kcal/mol]
x1 = 0.0383	0.0506
x1 = 0.0737	0.0908
x1 = 0.1066	0.123
x1 = 0.1373	0.15
x1 = 0.1659	0.173
x1 = 0.1927	0.191
x1 = 0.2226	0.209
x1 = 0.2504	0.223
x1 = 0.2763	0.235
x1 = 0.3005	0.244
x1 = 0.3231	0.252
x1 = 0.3443	0.258
x1 = 0.3678	0.263
x1 = 0.3898	0.267
x1 = 0.4102	0.27
x1 = 0.4151	0.273
x1 = 0.4243	0.274
x1 = 0.4339	0.275
x1 = 0.444	0.275
x1 = 0.4546	0.276
x1 = 0.4657	0.276
x1 = 0.4756	0.276
x1 = 0.486	0.276
x1 = 0.4968	0.275
x1 = 0.5082	0.275
x1 = 0.52	0.274
x1 = 0.5304	0.272
x1 = 0.5412	0.271
x1 = 0.5525	0.27
x1 = 0.5643	0.268
x1 = 0.5765	0.265
x1 = 0.5893	0.263
x1 = 0.6004	0.26
x1 = 0.612	0.257
x1 = 0.624	0.254
x1 = 0.6364	0.25
x1 = 0.6494	0.246
x1 = 0.6629	0.241
x1 = 0.6753	0.237
x1 = 0.6882	0.232
x1 = 0.7016	0.226
x1 = 0.7155	0.22
x1 = 0.73	0.213
x1 = 0.7451	0.205
x1 = 0.7709	0.191
x1 = 0.7844	0.183
x1 = 0.7985	0.175
x1 = 0.8131	0.165
x1 = 0.8282	0.155
x1 = 0.8413	0.146
x1 = 0.8549	0.136
x1 = 0.8689	0.125
x1 = 0.8834	0.113
x1 = 0.8983	0.101
x1 = 0.9138	0.0873
x1 = 0.9271	0.0752
x1 = 0.9409	0.0622
x1 = 0.955	0.0482
x1 = 0.9695	0.0332
x1 = 0.9845	0.017

CCCCCCC(C)=O [2-octanone]
Details	mass density [kg/m3]
[2]	814.28

CCCCCCCCCCCCCCCC [hexadecane]
Details	mass density [kg/m3]
[2]	770.31

CCCCCC(=O)CC [3-octanone] + CCCCCCCCCCCCCCCC
[1]
Details	excess molar enthalpy [kcal/mol]
x1 = 0.0448	0.0548
x1 = 0.0857	0.0987
x1 = 0.1233	0.134
x1 = 0.1578	0.163
x1 = 0.1899	0.187
x1 = 0.2195	0.207
x1 = 0.2522	0.227
x1 = 0.2824	0.243
x1 = 0.3102	0.255
x1 = 0.336	0.265
x1 = 0.3599	0.273
x1 = 0.3822	0.279
x1 = 0.4079	0.284
x1 = 0.4316	0.288
x1 = 0.4534	0.29
x1 = 0.4737	0.292
x1 = 0.4956	0.292
x1 = 0.5158	0.291
x1 = 0.5345	0.29
x1 = 0.5517	0.288
x1 = 0.5677	0.286
x1 = 0.5827	0.283
x1 = 0.5995	0.279
x1 = 0.615	0.276
x1 = 0.6293	0.272
x1 = 0.6426	0.268
x1 = 0.655	0.264
x1 = 0.6775	0.253
x1 = 0.69	0.248
x1 = 0.7029	0.243
x1 = 0.7163	0.237
x1 = 0.7302	0.231
x1 = 0.7423	0.225
x1 = 0.7547	0.218
x1 = 0.7676	0.211
x1 = 0.7809	0.204
x1 = 0.7947	0.195
x1 = 0.809	0.186
x1 = 0.8216	0.177
x1 = 0.8347	0.168
x1 = 0.8482	0.157
x1 = 0.8621	0.146
x1 = 0.8741	0.136
x1 = 0.8865	0.125
x1 = 0.8993	0.113
x1 = 0.9124	0.1
x1 = 0.9259	0.0866
x1 = 0.9375	0.0746
x1 = 0.9494	0.0618
x1 = 0.9615	0.0478
x1 = 0.974	0.033
x1 = 0.9868	0.0169

CCCCCCCCCCCCCC [tetradecane]
Details	mass density [kg/m3]
[2]	760.2

CCCCCCC(C)=O [2-octanone] + CCCCCCCCCCCCCCCC
[1]
Details	excess molar enthalpy [kcal/mol]
x1 = 0.0446	0.0598
x1 = 0.0854	0.107
x1 = 0.1228	0.144
x1 = 0.1573	0.175
x1 = 0.1926	0.202
x1 = 0.2251	0.223
x1 = 0.255	0.241
x1 = 0.2827	0.255
x1 = 0.3084	0.266
x1 = 0.3324	0.274
x1 = 0.3585	0.282
x1 = 0.3826	0.288
x1 = 0.405	0.292
x1 = 0.4258	0.295
x1 = 0.448	0.298
x1 = 0.4685	0.299
x1 = 0.4876	0.299
x1 = 0.4933	0.3
x1 = 0.5044	0.3
x1 = 0.5161	0.299
x1 = 0.5282	0.299
x1 = 0.541	0.298
x1 = 0.5519	0.297
x1 = 0.5633	0.295
x1 = 0.5751	0.294
x1 = 0.5874	0.291
x1 = 0.6003	0.289
x1 = 0.6138	0.286
x1 = 0.6257	0.283
x1 = 0.6508	0.275
x1 = 0.6642	0.27
x1 = 0.6781	0.265
x1 = 0.6926	0.259
x1 = 0.7048	0.254
x1 = 0.7174	0.248
x1 = 0.737	0.241
x1 = 0.7443	0.234
x1 = 0.7583	0.226
x1 = 0.7732	0.217
x1 = 0.7861	0.209
x1 = 0.7993	0.2
x1 = 0.8131	0.19
x1 = 0.8273	0.18
x1 = 0.84	0.17
x1 = 0.8531	0.159
x1 = 0.8666	0.148
x1 = 0.8805	0.135
x1 = 0.8949	0.122
x1 = 0.9075	0.109
x1 = 0.9204	0.0961
x1 = 0.9337	0.0819
x1 = 0.9473	0.0667
x1 = 0.9614	0.0499
x1 = 0.9739	0.0346
x1 = 0.9868	0.0177

CCCCCCC(C)=O [2-octanone] + CCCCCCCCCCCC
[1]
Details	excess molar enthalpy [kcal/mol]
x1 = 0.035	0.0456
x1 = 0.0677	0.0821
x1 = 0.0982	0.111
x1 = 0.1267	0.136
x1 = 0.1564	0.159
x1 = 0.1841	0.177
x1 = 0.2101	0.193
x1 = 0.2345	0.205
x1 = 0.2613	0.217
x1 = 0.2862	0.226
x1 = 0.3096	0.234
x1 = 0.3314	0.24
x1 = 0.3519	0.245
x1 = 0.3712	0.248
x1 = 0.3931	0.252
x1 = 0.4135	0.254
x1 = 0.4325	0.255
x1 = 0.4499	0.255
x1 = 0.4504	0.256
x1 = 0.4596	0.256
x1 = 0.4698	0.256
x1 = 0.4804	0.256
x1 = 0.4915	0.256
x1 = 0.5031	0.255
x1 = 0.5138	0.255
x1 = 0.525	0.253
x1 = 0.5366	0.252
x1 = 0.5488	0.251
x1 = 0.5615	0.249
x1 = 0.5749	0.246
x1 = 0.5866	0.244
x1 = 0.5986	0.241
x1 = 0.6133	0.238
x1 = 0.6244	0.235
x1 = 0.6381	0.231
x1 = 0.6525	0.227
x1 = 0.6658	0.222
x1 = 0.6795	0.217
x1 = 0.6938	0.212
x1 = 0.7072	0.206
x1 = 0.721	0.2
x1 = 0.7355	0.193
x1 = 0.7505	0.186
x1 = 0.7661	0.177
x1 = 0.7808	0.17
x1 = 0.7961	0.161
x1 = 0.812	0.151
x1 = 0.8265	0.142
x1 = 0.8414	0.133
x1 = 0.857	0.122
x1 = 0.873	0.11
x1 = 0.8877	0.0994
x1 = 0.9032	0.0876
x1 = 0.9191	0.0745
x1 = 0.9356	0.0608
x1 = 0.9509	0.047
x1 = 0.9667	0.0326
x1 = 0.9831	0.0167

CCCCCC(=O)CC [3-octanone]
Details	mass density [kg/m3]
[2]	817.77

CCCCCC(=O)CC [3-octanone] + CCCCCCCCCCCCCC
[1]
Details	excess molar enthalpy [kcal/mol]
x1 = 0.0384	0.0466
x1 = 0.074	0.0845
x1 = 0.107	0.116
x1 = 0.1377	0.141
x1 = 0.1664	0.163
x1 = 0.1933	0.181
x1 = 0.2233	0.198
x1 = 0.2512	0.213
x1 = 0.2771	0.224
x1 = 0.3013	0.233
x1 = 0.324	0.241
x1 = 0.3452	0.247
x1 = 0.3687	0.252
x1 = 0.3907	0.257
x1 = 0.4111	0.26
x1 = 0.4303	0.262
x1 = 0.4482	0.263
x1 = 0.465	0.264
x1 = 0.4833	0.264
x1 = 0.5005	0.264
x1 = 0.5166	0.263
x1 = 0.5316	0.261
x1 = 0.5458	0.259
x1 = 0.5618	0.257
x1 = 0.5762	0.254
x1 = 0.5904	0.251
x1 = 0.6033	0.248
x1 = 0.6131	0.245
x1 = 0.6255	0.242
x1 = 0.6385	0.239
x1 = 0.6519	0.235
x1 = 0.666	0.23
x1 = 0.6781	0.226
x1 = 0.6906	0.221
x1 = 0.7037	0.216
x1 = 0.7172	0.21
x1 = 0.7313	0.204
x1 = 0.7459	0.197
x1 = 0.7586	0.19
x1 = 0.7716	0.183
x1 = 0.7852	0.176
x1 = 0.7992	0.167
x1 = 0.8138	0.158
x1 = 0.8288	0.149
x1 = 0.8419	0.14
x1 = 0.8555	0.13
x1 = 0.8694	0.12
x1 = 0.8838	0.109
x1 = 0.8988	0.0967
x1 = 0.9142	0.0835
x1 = 0.9552	0.0458
x1 = 0.9696	0.0313
x1 = 0.9846	0.0167

CCCCCCCCCCCC [dodecane]
Details	mass density [kg/m3]
[2]	745.28

CCCCCC(=O)CC [3-octanone] + CCCCCCCCCCCC
[1]
Details	excess molar enthalpy [kcal/mol]
x1 = 0.0352	0.0408
x1 = 0.0679	0.0749
x1 = 0.0985	0.102
x1 = 0.1272	0.126
x1 = 0.1541	0.145
x1 = 0.1794	0.162
x1 = 0.2078	0.178
x1 = 0.2344	0.192
x1 = 0.2592	0.203
x1 = 0.2824	0.212
x1 = 0.3042	0.22
x1 = 0.3248	0.226
x1 = 0.3477	0.232
x1 = 0.3691	0.236
x1 = 0.3892	0.239
x1 = 0.408	0.242
x1 = 0.4257	0.243
x1 = 0.445	0.244
x1 = 0.4631	0.245
x1 = 0.48	0.245
x1 = 0.4959	0.245
x1 = 0.5109	0.244
x1 = 0.525	0.243
x1 = 0.5383	0.242
x1 = 0.5524	0.24
x1 = 0.5657	0.237
x1 = 0.5782	0.235
x1 = 0.5798	0.233
x1 = 0.59	0.233
x1 = 0.5925	0.231
x1 = 0.6057	0.229
x1 = 0.6194	0.226
x1 = 0.632	0.222
x1 = 0.6451	0.219
x1 = 0.6588	0.215
x1 = 0.673	0.21
x1 = 0.6855	0.207
x1 = 0.6985	0.201
x1 = 0.712	0.196
x1 = 0.726	0.19
x1 = 0.7405	0.183
x1 = 0.7557	0.176
x1 = 0.7693	0.17
x1 = 0.7833	0.162
x1 = 0.798	0.154
x1 = 0.8133	0.146
x1 = 0.8289	0.136
x1 = 0.8453	0.126
x1 = 0.8592	0.116
x1 = 0.8735	0.106
x1 = 0.8883	0.0958
x1 = 0.9036	0.0842
x1 = 0.9194	0.0717
x1 = 0.9358	0.0585
x1 = 0.9511	0.0454
x1 = 0.9668	0.0313
x1 = 0.9831	0.0161
